In patent US4937332A, “Cephalosporin derivatives” (Taisho Pharmaceutical Co., Ltd., priority 1987, dated 1990):
In brackets after ≈: the same amount, converted by molar mass. Where a name gives a salt, the structure may show the parent alone. Read-outs that look alike come from different tables or passages of the source.

What was measured:
[1] = in vivo; conditions: rat, blood, 50 mg/kg in 5% gum arabic, male wister rats, bioassay
Experimental: Three male wister rats (7 weeks old) for each group were administered orally with the test compounds, and the change of the concentration of the compound in blood was measured.
Dosage of the test compound:
50 mg/kg (suspended in 5% gum arabic)
Quantitative method: Bioasssay
(test bacterium: Escherichia coil SC507)

[2] = tested on: Escherichia coli NIJH JC-2; assay: Minimum inhibitory concentration, agar plate dilution method; assay type: cell-based
Experimental: (§1) The antibacterial activity against various bacteria was measured by the agar plate dilution method (inoculum size 10^6 cells/ml), and the results are shown in the following Table 1.

[3] = tested on: Morganella morganii IID 602; assay: as above; assay type: cell-based
Experimental: as §1

[4] = tested on: Staphylococcus aureus K-1; assay: as above; assay type: cell-based
Experimental: as §1

[5] = tested on: Staphylococcus aureus 209P-JC; assay: as above; assay type: cell-based; conditions: read-out: Minimum Inhibitory Concentration
Experimental: as §1

[6] = tested on: Escherichia coli A13; assay: as above; assay type: cell-based
Experimental: as §1

[7] = tested on: Klebsiella pneumoniae T-25; assay: as above; assay type: cell-based
Experimental: as §1

[8] = Escherichia coli, NIJHJC2, read-out: Minimum Inhibitory Concentration
[9] = Morganella morganii, IID602, read-out: Minimum Inhibitory Concentration
[10] = Staphylococcus aureus, K1, read-out: Minimum Inhibitory Concentration
[11] = Escherichia coli, A13, read-out: Minimum Inhibitory Concentration
[12] = Klebsiella pneumoniae, T25, read-out: Minimum Inhibitory Concentration
[13] = NIJHJC2, Escherichia coli NIJH JC-2, inoculum size 10^6 cells/ml, read-out: Minimum Inhibitory Concentration
[14] = IID602, Morganella morganii IID 602, inoculum size 10^6 cells/ml, read-out: Minimum Inhibitory Concentration
[15] = Staphylococcus aureus 209P-JC, inoculum size 10^6 cells/ml
[16] = Escherichia coli A13, inoculum size 10^6 cells/ml, read-out: Minimum Inhibitory Concentration
[17] = T25, Klebsiella pneumoniae T-25, inoculum size 10^6 cells/ml, read-out: Minimum Inhibitory Concentration

| MIC [2, 13] | MIC [3, 14] | MIC ([4]; K1, Staphylococcus aureus K-1, inoculum size 10^6 cells/ml, read-out: Minimum Inhibitory Concentration) | MIC [5, 15] | MIC [6, 16] | MIC [7, 17] | Compound | concentration at 4 h ([1]; Four Hours after oral administration) | concentration at 1 h ([1]; One Hour after oral administration) | concentration at 2 h ([1]; Two Hours after oral administration) | MIC [2, 8] | MIC [3, 9] | MIC [4, 10] | MIC ([5]; Staphylococcus aureus, 209P) | MIC [6, 11] | MIC [7, 12] |
| --- | --- | --- | --- | --- | --- | --- | --- | --- | --- | --- | --- | --- | --- | --- | --- |
|  |  |  |  |  |  | COC(=O)/C=C\SC1=C(C(=O)[O-])N2C(=O)[C@@H](NC(=O)/C(=N\O)c3csc(N)n3)[C@H]2SC1.[Na+] | 16900 ng/mL | 11000 ng/mL | 14200 ng/mL | ≤ 0.025 µg/mL | 0.05 µg/mL | 3.13 µg/mL | 0.2 µg/mL | 6.25 µg/mL | 0.2 µg/mL |
|  |  |  |  |  |  | CC1=C(C(=O)O)N2C(=O)[C@@H](NC(=O)[C@H](N)c3ccccc3)[C@H]2SC1 [Test compound B, Cephalexin] |  |  |  | 3.13 µg/mL (≈ 9.01 µM) | > 100 µg/mL | > 100 µg/mL | 0.78 µg/mL (≈ 2.25 µM) | > 100 µg/mL | 100 µg/mL (≈ 288 µM) |
| 0.05 µg/mL | 0.39 µg/mL | > 100 µg/mL | 12.5 µg/mL | > 100 µg/mL | 12.5 µg/mL | C=CC1=C(C(=O)O)N2C(=O)[C@@H](NC(=O)/C(=N\OCC(=O)O)c3csc(N)n3)[C@H]2SC1 [Test compound C, Cefixime sodium salt] |  |  |  |  |  |  |  |  |  |
| 0.05 µg/mL (≈ 0.092 µM) | 0.25 µg/mL (≈ 0.46 µM) |  | 6.25 µg/mL (≈ 11.5 µM) | > 100 µg/mL | 0.39 µg/mL (≈ 0.717 µM) | COC(=O)/C=C\SC1=C(C(=O)O)N2C(=O)[C@@H](NC(=O)/C(=N\OCC(=O)O)c3csc(N)n3)[C@H]2SC1 [Test compound D] |  |  |  |  |  |  |  |  |  |
